Source: publication PMC8213057, “Targeting ALK2: An Open Science Approach to Developing Therapeutics for the Treatment of Diffuse Intrinsic Pontine Glioma” (Journal of Medicinal Chemistry, 2020)

Assays:
EPHB3 = target: T1, EPHB3 (Homo sapiens, UniProt P54753); assay: biochemical; details: read-out: % enzyme activity, 1 μM; Run 1, Run 2
T1 sequence (P54753 34-998): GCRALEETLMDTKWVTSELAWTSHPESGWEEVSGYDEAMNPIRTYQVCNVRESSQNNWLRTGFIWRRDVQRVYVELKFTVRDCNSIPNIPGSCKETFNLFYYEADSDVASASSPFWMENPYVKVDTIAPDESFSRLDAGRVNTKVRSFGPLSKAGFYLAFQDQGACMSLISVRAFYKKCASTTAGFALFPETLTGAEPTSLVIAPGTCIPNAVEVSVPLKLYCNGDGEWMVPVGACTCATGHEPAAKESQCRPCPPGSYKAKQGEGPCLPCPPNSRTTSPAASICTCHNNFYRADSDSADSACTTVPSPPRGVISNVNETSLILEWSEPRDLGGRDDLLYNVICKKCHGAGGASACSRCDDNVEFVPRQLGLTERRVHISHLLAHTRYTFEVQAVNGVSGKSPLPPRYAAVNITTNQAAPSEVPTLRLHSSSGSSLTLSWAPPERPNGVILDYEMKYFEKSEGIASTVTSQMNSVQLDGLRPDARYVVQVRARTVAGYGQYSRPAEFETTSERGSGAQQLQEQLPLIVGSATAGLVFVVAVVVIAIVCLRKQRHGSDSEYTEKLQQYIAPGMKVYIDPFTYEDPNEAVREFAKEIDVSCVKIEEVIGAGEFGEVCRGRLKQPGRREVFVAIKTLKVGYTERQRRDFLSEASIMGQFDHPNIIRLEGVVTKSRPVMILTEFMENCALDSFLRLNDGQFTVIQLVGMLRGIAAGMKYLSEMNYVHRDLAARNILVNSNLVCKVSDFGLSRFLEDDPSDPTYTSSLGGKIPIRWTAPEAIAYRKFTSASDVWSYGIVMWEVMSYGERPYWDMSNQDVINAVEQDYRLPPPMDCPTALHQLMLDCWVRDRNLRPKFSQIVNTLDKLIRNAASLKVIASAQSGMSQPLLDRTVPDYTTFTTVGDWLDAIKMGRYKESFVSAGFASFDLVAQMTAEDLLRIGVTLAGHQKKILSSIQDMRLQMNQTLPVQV

SIK1 = SIK1 (Homo sapiens, UniProt P57059); details: 1 μM; Run 1, Run 2
Chain of SIK1 (P57059 whole entry): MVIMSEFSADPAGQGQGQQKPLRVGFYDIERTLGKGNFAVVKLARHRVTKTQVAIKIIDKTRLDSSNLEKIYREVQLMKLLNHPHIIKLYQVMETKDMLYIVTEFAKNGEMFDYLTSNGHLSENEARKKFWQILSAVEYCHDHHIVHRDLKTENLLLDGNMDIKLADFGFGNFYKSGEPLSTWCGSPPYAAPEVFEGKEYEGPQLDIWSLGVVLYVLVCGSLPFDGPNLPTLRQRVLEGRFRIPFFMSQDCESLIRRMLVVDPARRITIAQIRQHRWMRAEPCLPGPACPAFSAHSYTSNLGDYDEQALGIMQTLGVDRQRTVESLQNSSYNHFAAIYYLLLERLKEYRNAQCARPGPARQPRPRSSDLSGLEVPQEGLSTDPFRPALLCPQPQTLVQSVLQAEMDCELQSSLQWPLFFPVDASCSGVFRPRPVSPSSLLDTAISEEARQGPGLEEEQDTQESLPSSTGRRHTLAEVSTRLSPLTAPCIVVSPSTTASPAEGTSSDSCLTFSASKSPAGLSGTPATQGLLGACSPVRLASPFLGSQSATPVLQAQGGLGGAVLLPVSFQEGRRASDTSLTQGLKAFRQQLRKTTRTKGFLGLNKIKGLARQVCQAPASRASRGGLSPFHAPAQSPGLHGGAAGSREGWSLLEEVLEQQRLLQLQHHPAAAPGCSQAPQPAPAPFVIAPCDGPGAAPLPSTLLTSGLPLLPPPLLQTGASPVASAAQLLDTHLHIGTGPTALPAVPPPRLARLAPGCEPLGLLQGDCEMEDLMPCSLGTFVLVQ

LKB1 = target: T2, LKB1 (Homo sapiens, UniProt Q15831); details: 1 μM; Run 1, Run 2
T2 sequence (Q15831 1-433): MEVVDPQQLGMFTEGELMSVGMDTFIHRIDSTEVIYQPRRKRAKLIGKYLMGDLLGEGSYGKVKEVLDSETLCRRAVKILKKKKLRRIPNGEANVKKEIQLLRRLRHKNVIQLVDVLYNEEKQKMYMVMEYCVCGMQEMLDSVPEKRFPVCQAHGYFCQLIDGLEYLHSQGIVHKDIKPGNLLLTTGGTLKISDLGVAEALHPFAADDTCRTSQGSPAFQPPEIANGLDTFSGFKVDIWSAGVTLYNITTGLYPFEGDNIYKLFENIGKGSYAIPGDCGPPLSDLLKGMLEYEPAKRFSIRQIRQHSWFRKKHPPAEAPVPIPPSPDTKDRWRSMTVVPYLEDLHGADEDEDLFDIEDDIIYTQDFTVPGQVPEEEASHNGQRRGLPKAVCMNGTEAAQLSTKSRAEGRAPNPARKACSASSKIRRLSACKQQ
T2 sequence (Q7RTN6 1-431 partner): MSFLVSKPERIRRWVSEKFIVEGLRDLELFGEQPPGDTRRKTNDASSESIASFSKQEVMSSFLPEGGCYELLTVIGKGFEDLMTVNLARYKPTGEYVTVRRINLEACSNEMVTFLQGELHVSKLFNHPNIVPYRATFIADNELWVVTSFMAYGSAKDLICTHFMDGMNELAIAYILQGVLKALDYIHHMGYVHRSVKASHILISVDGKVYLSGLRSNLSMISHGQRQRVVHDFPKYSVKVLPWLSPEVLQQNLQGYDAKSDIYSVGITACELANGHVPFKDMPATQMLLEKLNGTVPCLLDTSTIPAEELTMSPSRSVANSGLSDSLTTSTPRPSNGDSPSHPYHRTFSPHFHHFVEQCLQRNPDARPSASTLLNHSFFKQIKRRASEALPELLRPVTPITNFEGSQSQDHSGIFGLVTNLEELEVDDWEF
T2 sequence (Q9Y376 1-341 partner): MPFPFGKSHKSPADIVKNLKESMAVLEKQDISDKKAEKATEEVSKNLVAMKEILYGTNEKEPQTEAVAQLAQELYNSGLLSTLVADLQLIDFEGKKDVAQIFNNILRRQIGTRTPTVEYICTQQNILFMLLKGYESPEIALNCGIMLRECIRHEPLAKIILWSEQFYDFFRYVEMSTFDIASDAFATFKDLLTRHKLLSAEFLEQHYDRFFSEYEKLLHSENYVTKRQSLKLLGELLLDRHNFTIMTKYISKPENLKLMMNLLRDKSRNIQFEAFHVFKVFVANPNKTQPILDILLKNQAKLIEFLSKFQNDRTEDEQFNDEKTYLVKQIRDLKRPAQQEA

MYLK4 = target: T3, MYLK4 (Homo sapiens, UniProt Q86YV6); assay: biochemical; details: read-out: % enzyme activity, 1 μM; Run 1, Run 2
T3 sequence (Q86YV6 1-388): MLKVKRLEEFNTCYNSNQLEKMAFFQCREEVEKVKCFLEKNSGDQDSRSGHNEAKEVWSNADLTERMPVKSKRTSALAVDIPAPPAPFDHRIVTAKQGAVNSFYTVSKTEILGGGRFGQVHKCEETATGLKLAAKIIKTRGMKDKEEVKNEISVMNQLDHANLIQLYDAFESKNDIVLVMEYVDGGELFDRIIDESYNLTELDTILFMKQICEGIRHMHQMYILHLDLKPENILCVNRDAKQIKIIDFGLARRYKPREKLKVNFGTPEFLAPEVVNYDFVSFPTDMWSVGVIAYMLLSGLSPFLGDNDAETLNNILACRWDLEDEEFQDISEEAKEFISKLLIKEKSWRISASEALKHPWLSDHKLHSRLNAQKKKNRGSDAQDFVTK

CK1d = CK1d (Homo sapiens, UniProt P48730); details: 1 μM; Run 1, Run 2
Chain of CK1d (P48730 whole entry): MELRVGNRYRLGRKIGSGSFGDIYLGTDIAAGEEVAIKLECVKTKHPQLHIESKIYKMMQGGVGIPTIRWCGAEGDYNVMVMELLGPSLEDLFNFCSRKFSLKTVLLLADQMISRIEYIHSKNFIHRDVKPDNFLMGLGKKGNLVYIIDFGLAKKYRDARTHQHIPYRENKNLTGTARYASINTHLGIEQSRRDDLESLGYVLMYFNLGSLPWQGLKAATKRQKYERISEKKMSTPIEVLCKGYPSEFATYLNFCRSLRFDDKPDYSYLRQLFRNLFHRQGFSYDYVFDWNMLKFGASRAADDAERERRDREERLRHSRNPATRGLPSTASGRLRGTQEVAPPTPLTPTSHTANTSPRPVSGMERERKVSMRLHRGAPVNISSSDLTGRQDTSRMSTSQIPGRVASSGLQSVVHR

STK38/NDR1 = STK38/NDR1 (Homo sapiens, UniProt Q15208); details: 1 μM; Run 1, Run 2
Chain of STK38/NDR1 (Q15208 whole entry): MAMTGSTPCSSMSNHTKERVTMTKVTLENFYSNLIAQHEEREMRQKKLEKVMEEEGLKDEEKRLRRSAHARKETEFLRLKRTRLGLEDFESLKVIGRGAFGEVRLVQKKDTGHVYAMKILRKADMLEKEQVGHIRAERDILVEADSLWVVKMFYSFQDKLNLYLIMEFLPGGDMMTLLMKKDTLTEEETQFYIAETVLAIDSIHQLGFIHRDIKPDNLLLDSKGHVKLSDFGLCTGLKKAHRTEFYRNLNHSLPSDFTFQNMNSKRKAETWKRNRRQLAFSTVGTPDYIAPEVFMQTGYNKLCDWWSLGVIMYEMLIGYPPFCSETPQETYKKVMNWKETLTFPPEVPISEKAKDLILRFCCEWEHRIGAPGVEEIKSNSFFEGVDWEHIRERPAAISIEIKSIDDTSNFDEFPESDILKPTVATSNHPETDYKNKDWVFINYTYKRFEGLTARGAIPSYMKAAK

SYK = SYK (Homo sapiens, UniProt P43405); details: 1 μM; Run 1, Run 2

| Structure (SMILES) | remaining activity at 1 µM (EPHB3) [%] | % enzyme activity (SIK1) [%] | % enzyme activity (LKB1) [%] | remaining activity at 1 µM (MYLK4) [%] | % enzyme activity (CK1d) [%] | % enzyme activity (STK38/NDR1) [%] | % enzyme activity (SYK) [%] |
| --- | --- | --- | --- | --- | --- | --- | --- |
| COc1cc(-c2cncc(-c3ccc(N4CCN(C)CC4)cc3)c2C)cc(F)c1C(N)=O [Compound 26a, 2-Fluoro-6-methoxy-4-(4-methyl-5-(4-(4-methylpiperazin-1-yl)phenyl)pyridin-3-yl)benzamide] | 95.5 | 82.71 | 79.50 | 97.7 | 94.27 | 90.38 | 100.12 |
| COc1cc(-c2cncc(-c3ccc(N4C[C@@H](C)N(C)[C@@H](C)C4)cc3)c2C)cc(F)c1C(N)=O [Compound 26c, 2-Fluoro-6-methoxy-4-(4-methyl-5-(4-((3R,5S)-3,4,5-trimethylpiperazin-1-yl)phenyl)pyridin-3-yl)benzamide] | 98.9 | 91.60 | 90.86 | 104 | 108.05 | 93.15 | 101.24 |
